Test results from patent US20020173538A1, “Method for sensitizing cancer cells to cancer therapies with a mevalonate-reducing compound” (priority 2000, published 2002).
Where two headings read alike, the source gives them in different places. Marks after values point to notes of the source that are not given here.

What was measured:
Hep 3B/T2 cells = test: Tumor growth of Hep 3B/T2 cells in nude mice; type: in vivo, BALB/c-nu/nu nude mice
Excerpt: The descriptive statistics were summarized as mean±STD. For statistical analysis, Student's t-test was used to determine significance of mean differences between groups.

Hep 3B cells = test: MTT cell viability assay, Hep 3B cells (serum-free DMEM); conditions: for viability at 0.002 µM / viability at 0.005 µM / viability at 0.01 µM / viability at 0.02 µM / viability at 0.05 µM / viability at 0.1 µM / viability at 0.2 µM / viability at 0.5 µM / viability at 1 µM / IC50: Homo sapiens, Hep3B
Excerpt: Human hepatoma cell lines Hep G2 and Hep 3 were chosen as the in vitro models of hepatocytes and hepatoma, respectively.

[1] = Cycle 2 (Day 63), LOV 37.5 mg/kg/day p.o. days 28-34 and 49-55 and/or taxol 120 μg/kg/2 day i.p. day 36, 38, 40, 57, 59, 61
[2] = no lovastatin 48 hr, then taxol 10 nM 48 hr
[3] = no lovastatin 72 hr, then taxol 2 nM 72 hr
[4] = no lovastatin 72 hr, then taxol 5 nM 48 hr
[5] = no lovastatin 72 hr, then taxol 5 nM 72 hr
[6] = no lovastatin 72 hr, then taxol 10 nM 72 hr

With `CC(=O)O[C@H]1C(=O)[C@@]2(C)[C@H]([C@H](OC(=O)c3ccccc3)[C@]3(O)C[C@H](OC(=O)[C@H](O)[C@@H](NC(=O)c4ccccc4)c4ccccc4)C(C)=C1C3(C)C)[C@]1(OC(C)=O)CO[C@@H]1C[C@@H]2O` [Taxol, paclitaxel] the Tumor size (Hep 3B/T2 cells; Cycle 1 (Day 42), LOV 37.5 mg/kg/day p.o. days 28-34 and 49-55 and/or taxol 120 μg/kg/2 day i.p. day 36, 38, 40, 57, 59, 61) was 0.465 cm^3, the Tumor size (Hep 3B/T2 cells; [1]) was 1.424 cm^3 and the “percentage of inhibition of tumor size” value (Hep 3B/T2 cells; [1]) was “(−43.1%”. For the same compound, the Tumor size (Hep 3B/T2 cells; Day 15, LOV 75 mg/kg/day p.o. days 8-14 and/or taxol 120 μg/kg/day i.p. days 15-19, n = 3) was 0.125 cm^3, the Tumor size (Hep 3B/T2 cells; Day 20, LOV 75 mg/kg/day p.o. days 8-14 and/or taxol 120 μg/kg/day i.p. days 15-19, n = 3) was 0.047 cm^3 and the Tumor size (Hep 3B/T2 cells; Day 23, LOV 75 mg/kg/day p.o. days 8-14 and/or taxol 120 μg/kg/day i.p. days 15-19, n = 3) was 0.037 cm^3. For the same compound, the “Tumor size (1 × w^2 × 0.52 cm^3) Day 28” value (Hep 3B/T2 cells; Day 28 after inoculation of 1 × 10^7 Hep 3B/T2 cells in male BALB/c-nu/nu nude mice, p.o. lovastatin 37.5 mg/kg/day (days 28-34, 49-55) and/or i.p. taxol 120 μg/kg/2 day (days 36, 38, 40, 57, 59, 61), mean ± SEM) was 0.170 cm^3, the Tumor size (Hep 3B/T2 cells; after two cycles: lovastatin fed 7 days, then paclitaxel injected 3 days (FIG. 38), mean±STD) was 1.43±0.46 cm^3 and the viability at 0.002 µM (Hep 3B cells; 48 h, read-out: Cell viability, taxol 2 nM, 48 hr) was 93.1 ± 1.3%. It also gave a viability at 0.002 µM (Hep 3B cells; 48 h, read-out: Cell viability, taxol 2 nM, 48 hr, Table 9) of 97 ± 1.5%, a viability at 0.005 µM (Hep 3B cells; 48 h, read-out: Cell viability, taxol 5 nM, 48 hr) of 91.6 ± 0.5% and a viability at 0.005 µM (Hep 3B cells; 48 h, read-out: Cell viability, taxol 5 nM, 48 hr, Table 9) of 97.5 ± 3.1%. The viability at 0.01 µM (Hep 3B cells; 48 h, read-out: Cell viability, taxol 10 nM, 48 hr) was 87.1 ± 1.5%, the viability at 0.01 µM (Hep 3B cells; 48 h, read-out: Cell viability, taxol 10 nM, 48 hr, Table 9) was 89.1 ± 3% and the viability at 0.02 µM (Hep 3B cells; 48 h, read-out: Cell viability, taxol 20 nM, 48 hr) was 85.4 ± 0.9%. It also gave a viability at 0.05 µM (Hep 3B cells; 48 h, read-out: Cell viability, taxol 50 nM, 48 hr) of 83.5 ± 0.9%, a viability at 0.1 µM (Hep 3B cells; 48 h, read-out: Cell viability, taxol 100 nM, 48 hr) of 74.9 ± 1.8% and a viability at 0.2 µM (Hep 3B cells; 48 h, read-out: Cell viability, taxol 200 nM, 48 hr) of 64.7 ± 4.6%. The viability at 0.5 µM (Hep 3B cells; 48 h, read-out: Cell viability, taxol 500 nM, 48 hr) was 56.2 ± 0.8%, the viability at 1 µM (Hep 3B cells; 48 h, read-out: Cell viability, taxol 1000 nM, 48 hr) was 55.3 ± 0.5% and the IC50 (Hep 3B cells; 48 h, read-out: IC50 (cell viability), 48 hr, Table 8) was 1119 ± 10.1 nM. The IC50 (Hep 3B cells; 48 h, read-out: IC50 (cell viability), 48 hr, Table 9) was 45.9 nM, the viability at 0.002 µM (Hep 3B cells; 72 h, read-out: Cell viability, taxol 2 nM, 72 hr) was 94 ± 3.6% and the viability at 0.002 µM (Hep 3B cells; 72 h, read-out: Cell viability, taxol 2 nM, 72 hr, Table 9) was 94 ± 3.6%. The viability at 0.005 µM (Hep 3B cells; 72 h, read-out: Cell viability, taxol 5 nM, 72 hr) was 91.7 ± 3.7%, the viability at 0.005 µM (Hep 3B cells; 72 h, read-out: Cell viability, taxol 5 nM, 72 hr, Table 9) was 91.7 ± 3.7% and the viability at 0.01 µM (Hep 3B cells; 72 h, read-out: Cell viability, taxol 10 nM, 72 hr) was 88.5 ± 2.4%. The viability at 0.01 µM (Hep 3B cells; 72 h, read-out: Cell viability, taxol 10 nM, 72 hr, Table 9) was 88.5 ± 2.4%, the viability at 0.02 µM (Hep 3B cells; 72 h, read-out: Cell viability, taxol 20 nM, 72 hr) was 85.6 ± 1.1% and the viability at 0.05 µM (Hep 3B cells; 72 h, read-out: Cell viability, taxol 50 nM, 72 hr) was 71.2 ± 4.2%. The viability at 0.1 µM (Hep 3B cells; 72 h, read-out: Cell viability, taxol 100 nM, 72 hr) was 52.7 ± 2.8%, the viability at 0.2 µM (Hep 3B cells; 72 h, read-out: Cell viability, taxol 200 nM, 72 hr) was 47 ± 1% and the viability at 0.5 µM (Hep 3B cells; 72 h, read-out: Cell viability, taxol 500 nM, 72 hr) was 32.2 ± 4.7%. For the same compound, the viability at 1 µM (Hep 3B cells; 72 h, read-out: Cell viability, taxol 1000 nM, 72 hr) was 24.6 ± 2.9%, the IC50 (Hep 3B cells; 72 h, read-out: IC50 (cell viability), 72 hr, Table 8) was 147 ± 14.2 nM and the IC50 (Hep 3B cells; 72 h, read-out: IC50 (cell viability), 72 hr, Table 9) was 43.5 nM. The viability at 0.002 µM (Hep 3B cells; 96 h, read-out: Cell viability, taxol 2 nM alone, 96 hr, Table 10) was 92.6 ± 1.9%, the viability at 0.002 µM (Hep 3B cells; 96 h, read-out: Cell viability, taxol 2 nM, 96 hr) was 94.1 ± 7.9% and the viability at 0.005 µM (Hep 3B cells; 96 h, read-out: Cell viability, taxol 5 nM alone, 96 hr, Table 10) was 79.5 ± 4.6%. The viability at 0.005 µM (Hep 3B cells; 96 h, read-out: Cell viability, taxol 5 nM, 96 hr) was 92.4 ± 4.8%, the viability at 0.01 µM (Hep 3B cells; 96 h, read-out: Cell viability, taxol 10 nM alone, 96 hr, Table 10) was 60.3 ± 3.4% and the viability at 0.01 µM (Hep 3B cells; 96 h, read-out: Cell viability, taxol 10 nM, 96 hr) was 82.3 ± 6.6%. It also gave an IC50 (Hep 3B cells; 96 h, read-out: IC50 (cell viability), 96 hr) of 28.2 nM, a viability at 0.002 µM (Hep 3B cells; 120 h, read-out: Cell viability, taxol 2 nM, 120 hr) of 94.2 ± 2.5% and a viability at 0.005 µM (Hep 3B cells; 120 h, read-out: Cell viability, taxol 5 nM, 120 hr) of 82.7 ± 3.7%. The viability at 0.01 µM (Hep 3B cells; 120 h, read-out: Cell viability, taxol 10 nM, 120 hr) was 71.9 ± 4.6%, the IC50 (Hep 3B cells; 120 h, read-out: IC50 (cell viability), 120 hr) was 17.8 nM and the Cell viability (Hep 3B cells; no lovastatin 48 hr, then taxol 2 nM 48 hr) was 102.4 ± 4.7^a % of control. For the same compound, the “Ratio, inhibition (%) Hep 3B/inhibition (%) Hep G2” value (shortened to “Ratio, inhibition … (%) Hep G2”) (Hep 3B cells; no lovastatin 48 hr, then taxol 5 nM 48 hr) was 0.3***, the Cell viability (Hep 3B cells; [2]) was 76.3 ± 1.3^c % of control and the “Ratio, inhibition … (%) Hep G2” value (Hep 3B cells; [2]) was 0.6***. For the same compound, the “Ratio, inhibition … (%) Hep G2” value (Hep 3B cells; no lovastatin 72 hr, then taxol 2 nM 48 hr) was 0.4***, the Cell viability (Hep 3B cells; [3]) was 91.1 ± 1.1^b % of control and the “Ratio, inhibition … (%) Hep G2” value (Hep 3B cells; [3]) was 0.4*. The Cell viability (Hep 3B cells; [4]) was 86.9 ± 1.3^b % of control, the “Ratio, inhibition … (%) Hep G2” value (Hep 3B cells; [4]) was 0.4*** and the Cell viability (Hep 3B cells; [5]) was 96.5 ± 0.6^a % of control. For the same compound, the “Ratio, inhibition … (%) Hep G2” value (Hep 3B cells; [5]) was 0.1***, the “Ratio, inhibition … (%) Hep G2” value (Hep 3B cells; no lovastatin 72 hr, then taxol 10 nM 48 hr) was 0.4** and the Cell viability (Hep 3B cells; [6]) was 78.0 ± 0.4^c % of control. The “Ratio, inhibition … (%) Hep G2” value (Hep 3B cells; [6]) was 0.6**, the “Ratio, inhibition … (%) Hep G2” value (Hep 3B cells; taxol 2 nM alone, 96 hr, Table 10) was 0.3** and the “Ratio, inhibition … (%) Hep G2” value (Hep 3B cells; taxol 2 nM, 48 hr) was 1.3*. The “Ratio, inhibition … (%) Hep G2” value (Hep 3B cells; taxol 2 nM, 72 hr) was 0.6*, the “Ratio, inhibition … (%) Hep G2” value (Hep 3B cells; taxol 5 nM alone, 96 hr, Table 10) was 0.4** and the “Ratio, inhibition … (%) Hep G2” value (Hep 3B cells; taxol 5 nM, 48 hr) was 0.3**. For the same compound, the “Ratio, inhibition … (%) Hep G2” value (Hep 3B cells; taxol 5 nM, 72 hr) was 0.2**, the “Ratio, inhibition … (%) Hep G2” value (Hep 3B cells; taxol 10 nM alone, 96 hr, Table 10) was 0.5*** and the “Ratio, inhibition … (%) Hep G2” value (Hep 3B cells; taxol 10 nM, 48 hr) was 0.4***. For the same compound, the “Ratio, inhibition … (%) Hep G2” value (Hep 3B cells; taxol 10 nM, 72 hr) was 0.2*** and the “Ratio, inhibition … (%) Hep G2” value (Hep 3B cells; taxol 20 nM, 48 hr) was 0.3***.
